23 molecules from US20080234262A1 (Wyeth, priority 2007, published 2008) can be followed below.

As a reminder, the IC50 is the point on the concentration scale where inhibition reaches its midpoint.

The test system of experiment [1] is prostate line LNCap. Nature of the experiment: In vitro cell culture growth assay (MTS), LNCap. It counts as cell-based, human. The note with it: Homo sapiens, LNCaP, 72 h, LNCap cells, three days after drug treatment.
Experiment [2] deals with PI3K (Homo sapiens, UniProt P42336). Description: Fluorescence polarization assay for PI3K.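 Note: PI3K kinase reaction on PIP2 with ATP, 30-60 min, product sensed by GST-GRP with red probe in fluorescence polarization (mP), controls without enzyme and at zero time.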 The experiment is classed as biochemical. Conditions: PI3Kα; read-out: PI3Kα IC50.
Chain of PI3K (P42336 whole entry): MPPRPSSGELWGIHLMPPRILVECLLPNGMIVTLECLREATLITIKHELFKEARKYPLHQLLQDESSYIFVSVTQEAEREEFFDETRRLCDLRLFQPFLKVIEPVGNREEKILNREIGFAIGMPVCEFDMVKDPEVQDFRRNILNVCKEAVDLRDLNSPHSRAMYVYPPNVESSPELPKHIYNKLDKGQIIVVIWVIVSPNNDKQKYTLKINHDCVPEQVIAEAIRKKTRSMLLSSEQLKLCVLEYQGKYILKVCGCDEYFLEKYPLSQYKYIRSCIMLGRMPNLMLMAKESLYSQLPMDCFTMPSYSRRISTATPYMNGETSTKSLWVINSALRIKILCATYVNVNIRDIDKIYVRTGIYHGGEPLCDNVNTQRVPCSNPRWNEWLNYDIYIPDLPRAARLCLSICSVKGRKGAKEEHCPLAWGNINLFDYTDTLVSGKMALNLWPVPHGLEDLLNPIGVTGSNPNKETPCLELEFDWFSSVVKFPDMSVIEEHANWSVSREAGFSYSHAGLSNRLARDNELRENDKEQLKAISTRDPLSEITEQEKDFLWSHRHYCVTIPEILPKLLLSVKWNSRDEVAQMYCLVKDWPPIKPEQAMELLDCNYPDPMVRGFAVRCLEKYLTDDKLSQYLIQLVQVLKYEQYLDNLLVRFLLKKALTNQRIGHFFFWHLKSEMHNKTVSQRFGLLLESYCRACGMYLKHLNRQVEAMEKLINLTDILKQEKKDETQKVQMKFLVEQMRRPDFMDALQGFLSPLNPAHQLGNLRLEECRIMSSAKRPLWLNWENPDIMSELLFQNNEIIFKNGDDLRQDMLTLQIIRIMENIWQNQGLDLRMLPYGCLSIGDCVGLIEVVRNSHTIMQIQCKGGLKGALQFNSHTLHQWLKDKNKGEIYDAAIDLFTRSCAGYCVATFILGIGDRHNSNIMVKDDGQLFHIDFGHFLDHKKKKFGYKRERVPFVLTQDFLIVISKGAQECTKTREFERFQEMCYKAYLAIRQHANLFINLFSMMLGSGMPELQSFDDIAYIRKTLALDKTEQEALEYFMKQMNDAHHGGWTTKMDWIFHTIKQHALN
Chain of PI3K (P27986 whole entry partner): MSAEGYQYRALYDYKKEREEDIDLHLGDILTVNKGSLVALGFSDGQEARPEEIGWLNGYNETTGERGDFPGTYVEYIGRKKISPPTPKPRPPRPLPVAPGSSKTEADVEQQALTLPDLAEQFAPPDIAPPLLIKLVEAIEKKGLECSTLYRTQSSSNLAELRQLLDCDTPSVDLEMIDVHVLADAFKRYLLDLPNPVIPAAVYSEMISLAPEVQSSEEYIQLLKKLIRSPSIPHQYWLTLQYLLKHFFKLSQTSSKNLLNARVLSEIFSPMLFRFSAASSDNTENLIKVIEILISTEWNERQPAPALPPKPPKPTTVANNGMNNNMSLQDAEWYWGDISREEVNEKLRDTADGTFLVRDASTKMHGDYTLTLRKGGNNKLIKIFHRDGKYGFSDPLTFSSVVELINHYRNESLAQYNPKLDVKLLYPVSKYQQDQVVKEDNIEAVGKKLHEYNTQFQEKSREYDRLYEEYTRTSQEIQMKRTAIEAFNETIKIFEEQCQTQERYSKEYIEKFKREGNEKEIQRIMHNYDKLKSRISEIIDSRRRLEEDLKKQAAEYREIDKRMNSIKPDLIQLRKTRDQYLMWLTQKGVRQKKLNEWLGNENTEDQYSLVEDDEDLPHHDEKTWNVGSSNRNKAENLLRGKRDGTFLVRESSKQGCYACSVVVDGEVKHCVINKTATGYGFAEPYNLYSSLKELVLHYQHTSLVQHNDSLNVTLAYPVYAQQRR
In experiment [3] the test system is breast line MDA468. Nature of the experiment: In vitro cell culture growth assay (MTS), MDA468. The note with it: Homo sapiens, 72 h, MDA468 cells, three days after drug treatment. It counts as cell-based, human. Put shortly: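 Cells were plated and, one day later, exposed to inhibitors for three days; viable cell density was then measured by metabolic conversion of MTS dye, read as absorbance at 490 nm. Growth is expressed as percent of vehicle-treated control cells on the same plate.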

Regarding `CCNC(=O)Nc1ccc(-c2nc(N3CCOCC3)c3cnn(C4CCN(Cc5ccccc5)CC4)c3n2)cc1F` [Example 349, 1-{4-[1-(1-benzylpiperidin-4-yl)-4-morpholin-4-yl-1H-pyrazolo[3,4-d]pyrimidin-6-yl]-2-fluorophenyl}-3-ethylurea], the figures for the IC50 in experiment [1], in experiment [2] and in experiment [3] were 230 nM, 485 nM and 2500 nM, respectively.
Taken in the same sequence, the figures for `CNC(=O)Nc1ccc(-c2nc(N3CCOCC3)c3cnn(C4CCN(Cc5cccnc5)CC4)c3n2)cc1F` [Example 350, 1-(2-fluoro-4-{4-morpholin-4-yl-1-[1-(pyridin-3-ylmethyl)piperidin-4-yl]-1H-pyrazolo[3,4-d]pyrimidin-6-yl}phenyl)-3-methylurea] were 27 nM, 246 nM and 200 nM.
The corresponding values for `O=C(Nc1ccccc1)Nc1ccc(-c2nc(N3CCOCC3)c3cnn(C4CCN(Cc5cccnc5)CC4)c3n2)cc1F` [Example 351, 1-(2-fluoro-4-{4-morpholin-4-yl-1-[1-(pyridin-3-ylmethyl)piperidin-4-yl]-1H-pyrazolo[3,4-d]pyrimidin-6-yl}phenyl)-3-phenylurea] are 70 nM, 41 nM and 400 nM.
Taken in the same sequence, the figures for `CNC(=O)Nc1ccc(-c2nc(N3CCOCC3)c3cnn(C4CCN(C(=O)c5ccccc5C)CC4)c3n2)cc1` [Example 356, 1-methyl-3-(4-{1-[1-(2-methylbenzoyl)piperidin-4-yl]-4-morpholin-4-yl-1H-pyrazolo[3,4-d]pyrimidin-6-yl}phenyl)urea] were 27 nM, 93 nM and 100 nM.
For the molecule `CNC(=O)Nc1ccc(-c2nc(N3CCOCC3)c3cnn(C4CCN(C(=O)c5cccc(F)c5)CC4)c3n2)cc1` [Example 357, 1-(4-{1-[1-(3-fluorobenzoyl)piperidin-4-yl]-4-morpholin-4-yl-1H-pyrazolo[3,4-d]pyrimidin-6-yl}phenyl)-3-methylurea], the figures for the IC50 in experiment [1], in experiment [2] and in experiment [3] were 27 nM, 89 nM and 100 nM, respectively.
In the case of `CNC(=O)Nc1ccc(-c2nc(N3CCOCC3)c3cnn(C4CCN(C(=O)c5cccc(Cl)c5)CC4)c3n2)cc1` [Example 358, 1-(4-{1-[1-(3-chlorobenzoyl)piperidin-4-yl]-4-morpholin-4-yl-1H-pyrazolo[3,4-d]pyrimidin-6-yl}phenyl)-3-methylurea], the concentration for half-maximal inhibition (IC50) in experiment [1] was 27 nM; in experiment [2], 53 nM; in experiment [3], 100 nM.
The corresponding values for `CNC(=O)Nc1ccc(-c2nc(N3CCOCC3)c3cnn(C4CCN(C(=O)c5cccc(C(F)(F)F)c5)CC4)c3n2)cc1` [Example 359, 1-methyl-3-[4-(4-morpholin-4-yl-1-{1-[3-(trifluoromethyl)benzoyl]piperidin-4-yl}-1H-pyrazolo[3,4-d]pyrimidin-6-yl)phenyl]urea] are 45 nM, 76 nM and 200 nM.
The corresponding values for `CNC(=O)Nc1ccc(-c2nc(N3CCOCC3)c3cnn(C4CCN(C(=O)c5ccc(Br)cc5)CC4)c3n2)cc1` [Example 360, 1-(4-{1-[1-(4-bromobenzoyl)piperidin-4-yl]-4-morpholin-4-yl-1H-pyrazolo[3,4-d]pyrimidin-6-yl}phenyl)-3-methylurea] are 52 nM, 35 nM and 200 nM.
Taken in the same sequence, the figures for `CNC(=O)Nc1ccc(-c2nc(N3CCOCC3)c3cnn(C4CCN(C(=O)c5ccc(F)cc5)CC4)c3n2)cc1` [Example 361, 1-(4-{1-[1-(4-fluorobenzoyl)piperidin-4-yl]-4-morpholin-4-yl-1H-pyrazolo[3,4-d]pyrimidin-6-yl}phenyl)-3-methylurea] were 27 nM, 108 nM and 100 nM.
Turning to `CNC(=O)Nc1ccc(-c2nc(N3CCOCC3)c3cnn(C4CCN(C(=O)c5ccc(Cl)cc5)CC4)c3n2)cc1` [Example 362, 1-(4-{1-[1-(4-chlorobenzoyl)piperidin-4-yl]-4-morpholin-4-yl-1H-pyrazolo[3,4-d]pyrimidin-6-yl}phenyl)-3-methylurea], the IC50 in experiment [1] amounted to 52 nM; in experiment [2], 42 nM; in experiment [3] it was 400 nM.
Taken in the same sequence, the figures for `CNC(=O)Nc1ccc(-c2nc(N3CCOCC3)c3cnn(C4CCN(C(=O)c5ccc(OC)cc5)CC4)c3n2)cc1` [Example 363, 1-(4-{1-[1-(4-methoxybenzoyl)piperidin-4-yl]-4-morpholin-4-yl-1H-pyrazolo[3,4-d]pyrimidin-6-yl}phenyl)-3-methylurea] were 45 nM, 55 nM and 400 nM.
Turning to `CNC(=O)Nc1ccc(-c2nc(N3CCOCC3)c3cnn(C4CCN(C(=O)c5cccc(OC)c5)CC4)c3n2)cc1` [Example 364, 1-(4-{1-[1-(3-methoxybenzoyl)piperidin-4-yl]-4-morpholin-4-yl-1H-pyrazolo[3,4-d]pyrimidin-6-yl}phenyl)-3-methylurea], the IC50 in experiment [1] was 35 nM; in experiment [2] it was 75 nM; in experiment [3], 300 nM.
As for `CNC(=O)Nc1ccc(-c2nc(N3CCOCC3)c3cnn(C4CCN(C(=O)c5ccccc5OC)CC4)c3n2)cc1` [Example 365, 1-(4-{1-[1-(2-methoxybenzoyl)piperidin-4-yl]-4-morpholin-4-yl-1H-pyrazolo[3,4-d]pyrimidin-6-yl}phenyl)-3-methylurea], the IC50 in experiment [1] turned out to be 27 nM; in experiment [2] it was 82 nM; in experiment [3], 300 nM.
In the case of `CNC(=O)Nc1ccc(-c2nc(N3CCOCC3)c3cnn(C4CCN(C(=O)c5ccc(C)cc5)CC4)c3n2)cc1` [Example 367, 1-methyl-3-(4-{1-[1-(4-methylbenzoyl)piperidin-4-yl]-4-morpholin-4-yl-1H-pyrazolo[3,4-d]pyrimidin-6-yl}phenyl)urea], the figures for the IC50 in experiment [1], in experiment [2] and in experiment [3] were 27 nM, 43 nM and 100 nM, respectively.
Take `CNC(=O)Nc1ccc(-c2nc(N3CCOCC3)c3cnn(C4CCN(C(=O)c5ccc(C#N)cc5)CC4)c3n2)cc1` [Example 368, 1-(4-{1-[1-(4-cyanobenzoyl)piperidin-4-yl]-4-morpholin-4-yl-1H-pyrazolo[3,4-d]pyrimidin-6-yl}phenyl)-3-methylurea]: the IC50 in experiment [1] came to 150 nM; in experiment [2] it was 89 nM; in experiment [3], 200 nM.
Taken in the same sequence, the figures for `O=C(Nc1cccnc1)Nc1ccc(-c2nc(N3CCOCC3)c3cnn(C4CCN(Cc5cccnc5)CC4)c3n2)cc1F` [Example 373, 1-(2-fluoro-4-{4-morpholin-4-yl-1-[1-(pyridin-3-ylmethyl)piperidin-4-yl]-1H-pyrazolo[3,4-d]pyrimidin-6-yl}phenyl)-3-pyridin-3-ylurea] were 40 nM, 55 nM and 200 nM.
Taken in the same sequence, the figures for `O=C(NCCF)Nc1ccc(-c2nc(N3CCOCC3)c3cnn(C4CCN(Cc5cccnc5)CC4)c3n2)cc1F` [Example 374, 1-(2-fluoroethyl)-3-(2-fluoro-4-{4-morpholin-4-yl-1-[1-(pyridin-3-ylmethyl)piperidin-4-yl]-1H-pyrazolo[3,4-d]pyrimidin-6-yl}phenyl)urea] were 140 nM, 619 nM and 1300 nM.
The corresponding values for `O=C(Nc1ccccc1)Nc1ccc(-c2nc(N3CCOCC3)c3cnn(C4CCN(C(=O)c5ccccc5)CC4)c3n2)cc1` [Example 378, 1-{4-[1-(1-benzoylpiperidin-4-yl)-4-morpholin-4-yl-1H-pyrazolo[3,4-d]pyrimidin-6-yl]phenyl}-3-phenylurea] are 27 nM, 16 nM and 100 nM.
On to `NC(=O)Nc1ccc(-c2nc(N3CCOCC3)c3cnn(C4CCN(C(=O)c5ccccc5)CC4)c3n2)cc1` [Example 382, 1-{4-[1-(1-benzoylpiperidin-4-yl)-4-morpholin-4-yl-1H-pyrazolo[3,4-d]pyrimidin-6-yl]phenyl}urea], for which the IC50 in experiment [1] was 170 nM; in experiment [2], 85 nM; in experiment [3] it was 200 nM.
Taken in the same sequence, the figures for `CCOC(=O)Nc1ccc(-c2nc(N3CCOCC3)c3cnn(C4CCN(C(=O)c5ccccc5)CC4)c3n2)cc1` [Example 383, Ethyl {4-[1-(1-benzoylpiperidin-4-yl)-4-morpholin-4-yl-1H-pyrazolo[3,4-d]pyrimidin-6-yl]phenyl}carbamate] were 900 nM, 1580 nM and 4300 nM.
Taken in the same sequence, the figures for `O=C(Nc1ccncc1)Nc1ccc(-c2nc(N3CCOCC3)c3cnn(C4CCN(C(=O)c5ccccc5)CC4)c3n2)cc1` [Example 384, 1-{4-[1-(1-benzoylpiperidin-4-yl)-4-morpholin-4-yl-1H-pyrazolo[3,4-d]pyrimidin-6-yl]phenyl}-3-pyridin-4-ylurea] were 42 nM, 19 nM and 100 nM.
The corresponding values for `O=C(NCCO)Nc1ccc(-c2nc(N3CCOCC3)c3cnn(C4CCN(C(=O)c5ccccc5)CC4)c3n2)cc1` [Example 385, 1-{4-[1-(1-benzoylpiperidin-4-yl)-4-morpholin-4-yl-1H-pyrazolo[3,4-d]pyrimidin-6-yl]phenyl}-3-(2-hydroxyethyl)urea] are 800 nM, 229 nM and 700 nM.
On to `CNCCNC(=O)Nc1ccc(-c2nc(N3CCOCC3)c3cnn(C4CCN(C(=O)c5ccccc5)CC4)c3n2)cc1` [Example 386, 1-{4-[1-(1-benzoylpiperidin-4-yl)-4-morpholin-4-yl-1H-pyrazolo[3,4-d]pyrimidin-6-yl]phenyl}-3-[2-(methylamino)ethyl]urea], for which the IC50 stood at 1200 nM in experiment [1], 48 nM in experiment [2] and 1400 nM in experiment [3].
